Assay results: US20080004276A1, “Method for treating non-hodgkin's lymphoma” (priority 2006, published 2008)

test system: Her2; experiment: IC50 range for inhibition of Her2 degradation (Table 8); type: cell-based; conditions: Homo sapiens
Experimental: Human high-Her2 breast carcinoma BT474 (HTB-20), SK-BR-3 (HTB-30) and MCF-7 breast carcinoma (HTB-22) from American Type Culture Collection, VA, USA were grown in Dulbecco's modified Eagle's medium with 4 mM L-glutamine and antibiotics (100 IU/ml penicillin and 100 ug/ml streptomycine; GibcoBRL). To obtain exponential cell growth, cells were trypsinized, counted and seeded at a cell density of 0.5×10^6 cells/ml regularly, every 3 days. All experiments were performed on day 1 after cell passage. […]
After treatment with a compound of the invention, cells were washed twice with 1×PBS/1% FBS, and then stained with anti-Her2-FITC (#340553, BD) for 30 min at 4° C. Cells were then washed three times in FACS buffer before the fixation in 0.5 ml 1% paraformadehydrede. Data was acquired on a FACSCalibur system. Isotype-matched controls were used to establish the non-specific staining of samples and to set the fluorescent markers. A total 10,000 events were recorded from each sample. Data were analysed by using CellQuest software (BD Biosciences).

Row | Structure (SMILES) | IC50 [µM]
1 | Oc1ccc(-c2nnc(S)n2-c2cccc3c2OCCO3)c(O)c1 [Compound 14, 3-(2,4-Dihydroxyphenyl)-4-(2,3-dihydro-benzo[1,4]dioxin-5-yl)-5-mercapto-triazole] | 3 to 10
2 | O=C(c1ccccc1)c1cccc(-n2c(S)nnc2-c2ccc(O)cc2O)c1 [Compound 64, 3-[2,4-Dihydroxy-phenyl]-4-(3-benzoylphenyl)-5-mercapto-triazole] | 3 to 10
3 | COCCn1ccc2c(-n3c(S)nnc3-c3ccc(O)cc3O)cccc21 [Compound 96] | < 3
4 | Oc1ccc(-c2nnc(S)n2-c2cccc(-c3ccccc3)c2)c(O)c1 [Compound 181, 3-(2,4-Dihydroxy-phenyl)-4-(biphenyl-3-yl)-5-mercapto-triazole] | 10 to 100
5 | Oc1ccc(-c2nnc(S)n2-c2ccc(O)c3ccccc23)c(O)c1 [Compound 87, 3-(2,4-Dihydroxyphenyl)-4-(4-hydroxy-naphthalen-1-yl)-5-mercapto-triazole] | < 3
6 | OCc1cc(O)c(-c2nnc(S)n2-c2cccc3ccccc23)cc1O [Compound 104, 3-(2,5-Dihydroxy-4-hydroxymethyl-phenyl)-4-(naphthalen-1-yl)-5-mercapto-triazole] | 10 to 100
7 | Cn1cc(-c2nnc(S)n2-c2cccc3ccccc23)c(O)cc1=O [Compound 60] | 10 to 100
8 | Oc1cc(O)c(-c2nnc(S)n2-c2cccc3ccccc23)cc1O [Compound 184, 3-(2,4,5-Trihydroxy-phenyl)-4-(naphthalene-1-yl)-5-mercapto-triazole] | 3 to 10
9 | CCn1ccc2c(-n3c(S)nnc3-c3ccc(O)cc3O)cccc21 [Compound 13, 3-(2,4-Dihydroxyphenyl)-4-(1-ethyl-indol-4-yl)-5-mercapto-triazole] | < 3
10 | CCOc1ccc2c(-n3c(S)nnc3-c3ccc(O)cc3O)cccc2c1 [Compound 6] | 3 to 10
11 | CCc1cc(-c2n[nH]c(O)c2-c2cccc3ccccc23)c(O)cc1O [Compound 348, 4-(naphthalen-1-yl)-3-(5-ethyl-2,4-dihydroxy-phenyl)-5-hydroxy-2H-pyrazole] | 10 to 100
12 | Cc1ccc(-n2c(S)nnc2-c2ccc(O)cc2O)c(C)c1 [Compound 28, 3-(2,4-Dihydroxyphenyl)-4-(2,4-dimethyl-phenyl)-5-mercapto-triazole] | 3 to 10
13 | CCc1cc(-c2nnc(S)n2-c2ccc(OC)c3c2ccn3C(C)C)c(O)cc1O [Compound 188, 3-(2,4-Dihydroxy-5-ethyl-phenyl)-4-(1-isopropyl-7-methoxy-indol-4-yl)-5-mercapto-[1,2,4]triazole] | < 3
14 | CC(=O)Oc1ccc(-c2nnc(SC(C)=O)n2-c2cccc3ccccc23)c(OC(C)=O)c1 [Compound 122, 3-(2,4-Diacetoxy-phenyl)-4-(naphthalen-1-yl)-5-(acetylsulfanyl)-triazole] | 3 to 10
15 | Oc1ccc(-c2nnc(S)n2-c2cccc(Cl)c2Cl)c(O)c1 [Compound 38, 3-(2,4-Dihydroxyphenyl)-4-(2,3-dichlorophenyl)-5-mercapto-triazole] | 3 to 10
16 | Oc1ccc(-c2nnc(S)n2-c2cccc3cnccc23)c(O)c1 [Compound 70, 3-(2,4-Dihydroxy-phenyl)-4-(isoquinolin-5-yl)-5-mercapto-triazole] | 3 to 10
17 | CCn1cc(-c2nnc(S)n2-c2cccc3ccccc23)c(O)cc1=O [Compound 59, 3-(1-ethyl-4-hydroxy-6-oxo-1,6-dihydro-pyridin-3-yl)-4-(naphthalen-1-yl)-5-mercapto-triazole] | 10 to 100
18 | CC(=O)Oc1ccc(-c2nnc(S)n2-c2cccc3ccccc23)c(OC(C)=O)c1 [Compound 123, 3-(2,4-Diacetoxy-phenyl)-4-(naphthalen-1-yl)-5-mercapto-triazole] | 10 to 100
19 | Oc1ccc(-c2nnc(S)n2-c2ccc(Cl)c3ccccc23)c(O)c1 [Compound 48, 3-(2,4-Dihydroxyphenyl)-4-(4-chloronaphthalen-1-yl)-5-mercapto-triazole] | 3 to 10
20 | O=C(O)c1cc(O)c(-c2nnc(S)n2-c2cccc3ccccc23)cc1O [Compound 99, 3-(2,5-Dihydroxy-4-carboxy)-4-(naphthalen-1-yl)-5-mercapto-triazole] | 10 to 100
21 | Oc1ccc(-c2nnc(S)n2-c2cccc3c2CCCC3)c(O)c1 [Compound 42, 3-(2,4-Dihydroxyphenyl)-4-(1,2,3,4-tetrahydronaphthalen-5-yl)-5-mercapto-triazole] | 3 to 10
22 | Cc1cc(-n2c(S)nnc2-c2ccc(O)cc2O)c2ccccc2n1 [Compound 51, 3-(2,4-Dihydroxyphenyl)-4-(2-methyl-quinolin-4-yl)-5-mercapto-triazole] | 10 to 100
23 | CC(C)Oc1ccc2c(-n3c(S)nnc3-c3ccc(O)cc3O)cccc2c1 [Compound 9] | 3 to 10
24 | CCCOc1ccc2c(-n3c(S)nnc3-c3ccc(O)cc3O)cccc2c1 [Compound 7] | 3 to 10
25 | Cc1ccc(CO)cc1-n1c(S)nnc1-c1ccc(O)cc1O [Compound 182, 3-(2,4-Dihydroxy-phenyl)-4-(2-methyl-5-hydroxymethyl-phenyl)-5-mercapto-triazole] | 10 to 100

More lines, now with the values ahead:

Row | IC50 [µM] | Structure (SMILES)
26 | < 3 | Cc1cc(-c2nnc(S)n2-c2cccc3ccccc23)c(O)cc1O [Compound 63, 3-(2,4-Dihydroxy-5-methyl-phenyl)-4-(naphthalene-1-yl)-5-mercapto-triazole]
27 | < 3 | CCc1cc(-c2nnc(S)n2-c2cccc3c2ccn3C(C)C)c(O)cc1O [Compound 100, 3-(2,4-Dihydroxy-5-ethyl-phenyl)-4-(1-isopropyl-indol-4-yl)-5-mercapto-triazole]
28 | < 3 | CCc1cc(-c2nnc(S)n2-c2cccc3cc(OC)ccc23)c(O)cc1O [Compound 77, 3-(2,4-Dihydroxy-5-ethyl-phenyl)-4-(6-methoxy-naphthalin-1-yl)-5-mercapto-triazole]
29 | 3 to 10 | COc1cccc(-n2c(S)nnc2-c2ccc(O)cc2O)c1OC [Compound 93, 3-(2,4-Dihydroxy-phenyl)-4-(2,3-dimethoxy-phenyl)-5-mercapto-triazole]
30 | < 3 | CCc1cc(-c2nnc(S)n2-c2ccc(OC)c3ccccc23)c(O)cc1O [Compound 76, 3-(2,4-Dihydroxy-5-ethyl-phenyl)-4-(4-methoxy-naphthalen-1-yl)-5-mercapto-triazole]
31 | < 3 | CCc1cc(-c2nnc(S)n2-c2cccc3c(O)cccc23)c(O)cc1O [Compound 178, 3-(2,4-Dihydroxy-5-ethyl-phenyl)-4-(5-hydroxy-naphthalen-1-yl)-5-mercapto-triazole]
32 | 10 to 100 | CC(C)(C)c1cc(-n2c(S)nnc2-c2ccc(O)cc2O)cc(C(C)(C)C)c1 [Compound 61, 3-(2,4-Dihydroxy-phenyl)-4-(3,5-di-tert-butylphenyl)-5-mercapto-triazole]
33 | < 3 | CCCN(c1cc(-n2c(S)nnc2-c2cc(CC)c(O)cc2O)ccc1OC)C(C)C [Compound 248, 4-(4-(3-(N-isopropyl-N-propylamino)-4-methoxyphenyl)-5-mercapto-4H-1,2,4-triazol-3-yl)-6-ethylbenzene-1,3-diol]
34 | < 3 | CCc1cc(-c2nnc(S)n2-c2ccc(OC)c(N(C)CC)c2)c(O)cc1O [Compound 250, 4-(4-(3-(N-ethyl-N-methylamino)-4-methoxyphenyl)-5-mercapto-4H-1,2,4-triazol-3-yl)-6-ethylbenzene-1,3-diol]
35 | 10 to 100 | CCc1cc(-c2nnc(S)n2-c2ccc(OC)c(C(C)(C)C)c2)c(O)cc1O [Compound 186, 3-(2,4-Dihydroxy-5-ethyl-phenyl)-4-(3-t-butyl-4-methoxy-phenyl)-5-mercapto-triazole]
36 | < 3 | CCc1cc(-c2nnc(S)n2-c2cccc(N(C)C)c2)c(O)cc1O [Compound 252, 4-(4-(3-(dimethylamino)phenyl)-5-mercapto-4H-1,2,4-triazol-3-yl)-6-ethylbenzene-1,3-diol]
37 | < 3 | COc1cccc2c(-n3c(S)nnc3-c3ccc(O)cc3O)cccc12 [Compound 39, 3-(2,4-Dihydroxyphenyl)-4-(5-methoxynaphthalen-1-yl)-5-mercapto-triazole]
38 | 10 to 100 | CCc1cc(-c2nnc(S)n2-c2cccc3c2ncn3CC)c(O)cc1O [Compound 102, 3-(2,4-Dihydroxy-5-ethyl-phenyl)-4-(1-ethyl-benzoimidazol-4-yl)-5-mercapto-triazole]
39 | < 3 | CCc1cc(-c2nnc(S)n2-c2ccc(OC)c(N(CC)CC)c2)c(O)cc1O [Compound 247, 4-(4-(3-(diethylamino)-4-methoxyphenyl)-5-mercapto-4H-1,2,4-triazol-3-yl)-6-ethylbenzene-1,3-diol]
40 | < 3 | CCc1cc(-c2nnc(S)n2-c2ccc(OC)c(C)c2C)c(O)cc1O [Compound 79, 3-(2,4-Dihydroxy-5-ethyl-phenyl)-4-(2,3-dimethy-4-methoxy-phenyl)-5-mercapto-triazole]
41 | < 3 | CCc1cc(-c2nnc(S)n2-c2ccc(N(C)C)c(OC)c2)c(O)cc1O [Compound 259, 4-(4-(4-(dimethylamino)-3-methoxyphenyl)-5-mercapto-4H-1,2,4-triazol-3-yl)-6-ethylbenzene-1,3-diol]
42 | < 3 | COc1cc(-c2nnc(S)n2-c2cccc3ccccc23)c(O)cc1O [Compound 177, 3-(2,4-Dihydroxy-5-methoxy-phenyl)-4-(naphthalen-1-yl)-5-mercapto-triazole]
43 | < 3 | CCc1cc(-c2nnc(S)n2-c2ccc3c(c2)c(C)c(C)n3C)c(O)cc1O [Compound 103, 3-(2,4-Dihydroxy-5-ethyl-phenyl)-4-(1,2,3-trimethyl-indol-5-yl)-5-mercapto-triazole]
